Data as given in patent US8729064B2, “Heteroaromatic and aromatic piperazinyl azetidinyl amides as monoacylglycerol lipase inhibitors” (Janssen Pharmaceutica, NV, priority 2009, dated 2014).

These compounds were tested against T1, MGL activity in HeLa cell homogenate (Homo sapiens, UniProt Q99685) (assay: 2-AG Accumulation Assay in HeLa cell homogenate). Details: compound 1 μM, accumulated 2-AG relative to MAFP 2-AG x100.
T1 construct: HeLa cells were homogenated with a Polytron; endogenous in cells; host or cells: HeLa cell homogenate
T1 sequence (Q99685 1-303): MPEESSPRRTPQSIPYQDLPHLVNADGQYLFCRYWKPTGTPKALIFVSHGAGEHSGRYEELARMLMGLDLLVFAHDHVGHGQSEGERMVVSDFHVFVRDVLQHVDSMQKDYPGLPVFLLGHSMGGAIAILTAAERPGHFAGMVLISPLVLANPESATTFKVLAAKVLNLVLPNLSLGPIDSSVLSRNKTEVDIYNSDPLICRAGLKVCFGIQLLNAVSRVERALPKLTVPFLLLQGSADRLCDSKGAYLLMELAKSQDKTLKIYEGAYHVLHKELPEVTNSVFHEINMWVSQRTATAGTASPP
Format: biochemical
For `O=C(c1ccc2nc(C3CCCCC3)oc2c1)N1CC(N2CCN(c3ccccn3)CC2)C1` [Compound 2, (2-Cyclohexyl-benzooxazol-6-yl)-[3-(4-pyridin-2-yl-piperazin-1-yl)-azetidin-1-yl]-methanone], the “Example 4 % MAFP @ 1 μM” value was 39.7 % MAFP. In the case of `O=C(c1cccc2nc(-c3cccc(F)c3)oc12)N1CC(N2CCN(c3ccccn3)CC2)C1` [Compound 3, [2-(3-Fluoro-phenyl)-benzooxazol-7-yl]-[3-(4-pyridin-2-yl-piperazin-1-yl)-azetidin-1-yl]-methanone], the “Example 4 % MAFP @ 1 μM” value is reported as 45.7 % MAFP. In the case of `O=C(c1cccc2nc(-c3ccc(F)cc3)oc12)N1CC(N2CCN(c3ccccn3)CC2)C1` [Compound 6, [2-(4-Fluoro-phenyl)-benzooxazol-7-yl]-[3-(4-pyridin-2-yl-piperazin-1-yl)-azetidin-1-yl]-methanone], the “Example 4 % MAFP @ 1 μM” value is reported as 30.6 % MAFP. With `CC(C)(C)c1nc2ccc(C(=O)N3CC(N4CCN(c5ccccn5)CC4)C3)cc2o1` [Compound 19, (2-tert-Butyl-benzooxazol-6-yl)-[3-(4-pyridin-2-yl-piperazin-1-yl)-azetidin-1-yl]-methanone] the “Example 4 % MAFP @ 1 μM” value was 19.9 % MAFP.

Same assay, conditions: compound 10 μM, accumulated 2-AG relative to MAFP 2-AG x100
With `O=C(c1ccc2nc(C3CCCCC3)oc2c1)N1CC(N2CCN(c3ccccn3)CC2)C1` [Compound 2, (2-Cyclohexyl-benzooxazol-6-yl)-[3-(4-pyridin-2-yl-piperazin-1-yl)-azetidin-1-yl]-methanone] the “Example 4 % MAFP @ 10 μM” value was 87.6 % MAFP. With `O=C(c1cccc2nc(-c3cccc(F)c3)oc12)N1CC(N2CCN(c3ccccn3)CC2)C1` [Compound 3, [2-(3-Fluoro-phenyl)-benzooxazol-7-yl]-[3-(4-pyridin-2-yl-piperazin-1-yl)-azetidin-1-yl]-methanone] the “Example 4 % MAFP @ 10 μM” value was 82.9 % MAFP. In the case of `O=C(c1cccc2nc(-c3ccc(F)cc3)oc12)N1CC(N2CCN(c3ccccn3)CC2)C1` [Compound 6, [2-(4-Fluoro-phenyl)-benzooxazol-7-yl]-[3-(4-pyridin-2-yl-piperazin-1-yl)-azetidin-1-yl]-methanone], the “Example 4 % MAFP @ 10 μM” value is reported as 68.8 % MAFP. With `COc1ccc(-c2nc3cccc(C(=O)N4CC(N5CCN(c6ccccn6)CC5)C4)c3o2)cc1` [Compound 7, [2-(4-Methoxy-phenyl)-benzooxazol-7-yl]-[3-(4-pyridin-2-yl-piperazin-1-yl)-azetidin-1-yl]-methanone] the “Example 4 % MAFP @ 10 μM” value was 79.5 % MAFP. In the case of `CC(C)Cc1cc2cc(C(=O)N3CC(N4CCN(c5ccccn5)CC4)C3)ccc2n1CC(C)C` [Compound 8, (1,2-Diisobutyl-1H-indol-5-yl)-[3-(4-pyridin-2-yl-piperazin-1-yl)-azetidin-1-yl]-methanone], the “Example 4 % MAFP @ 10 μM” value is reported as 72.9 % MAFP. `CC(C)Cn1c(COc2ccccc2)cc2cc(C(=O)N3CC(N4CCN(c5ccccn5)CC4)C3)ccc21` [Compound 9, (1-Isobutyl-2-phenoxymethyl-1H-indol-5-yl)-[3-(4-pyridin-2-yl-piperazin-1-yl)-azetidin-1-yl]-methanone] was tested, and the “Example 4 % MAFP @ 10 μM” value was 67.8 % MAFP. `CC(C)(C)Cn1c(-c2ccccc2)cc2cc(C(=O)N3CC(N4CCN(c5ccccn5)CC4)C3)ccc21` [Compound 10, [1-(2,2-Dimethyl-propyl)-2-phenyl-1H-indol-5-yl]-[3-(4-pyridin-2-yl-piperazin-1-yl)-azetidin-1-yl]-methanone] was tested, and the “Example 4 % MAFP @ 10 μM” value was 160.1 % MAFP. With `O=C(c1ccc2c(c1)cc(COc1ccccc1)n2CC1CCCCC1)N1CC(N2CCN(c3ccccn3)CC2)C1` [Compound 11, (1-Cyclohexylmethyl-2-phenoxymethyl-1H-indol-5-yl)-[3-(4-pyridin-2-yl-piperazin-1-yl)-azetidin-1-yl]-methanone] the “Example 4 % MAFP @ 10 μM” value was 160.1 % MAFP. `Cn1c(CC2CCCC2)cc2cc(C(=O)N3CC(N4CCN(c5ccccn5)CC4)C3)ccc21` [Compound 12, (2-Cyclopentylmethyl-1-methyl-1H-indol-5-yl)-[3-(4-pyridin-2-yl-piperazin-1-yl)-azetidin-1-yl]-methanone] was tested, and the “Example 4 % MAFP @ 10 μM” value was 142.0 % MAFP. With `CC(C)Cn1c(-c2ccccc2)cc2cc(C(=O)N3CC(N4CCN(c5ccccn5)CC4)C3)ccc21` [Compound 13, (1-Isobutyl-2-phenyl-1H-indol-5-yl)-[3-(4-pyridin-2-yl-piperazin-1-yl)-azetidin-1-yl]-methanone] the “Example 4 % MAFP @ 10 μM” value was 93.5 % MAFP. In the case of `O=C(c1ccc2[nH]c(CC3CCCCC3)cc2c1)N1CC(N2CCN(c3ccccn3)CC2)C1` [Compound 14, (2-Cyclohexylmethyl-1H-indol-5-yl)-[3-(4-pyridin-2-yl-piperazin-1-yl)-azetidin-1-yl]-methanone], the “Example 4 % MAFP @ 10 μM” value is reported as 53.7 % MAFP. In the case of `COc1ccccc1Cc1nc2cc(C(=O)N3CC(N4CCN(c5ccccn5)CC4)C3)ccc2o1` [Compound 15, [2-(2-Methoxy-benzyl)-benzooxazol-5-yl]-[3-(4-pyridin-2-yl-piperazin-1-yl)-azetidin-1-yl]-methanone], the “Example 4 % MAFP @ 10 μM” value is reported as 57.6 % MAFP. In the case of `COc1ccccc1N1CCN(C2CN(C(=O)c3ccc4c(c3)cc(COc3ccccc3)n4CC(C)C)C2)CC1` [Compound 17, (1-Isobutyl-2-phenoxymethyl-1H-indol-5-yl)-{3-[4-(2-methoxy-phenyl)-piperazin-1-yl]-azetidin-1-yl}-methanone], the “Example 4 % MAFP @ 10 μM” value is reported as 25.9 % MAFP. With `O=C(c1ccc2c(c1)cc(Cc1ccccc1)n2CC1CCCCC1)N1CC(N2CCN(c3ccccn3)CC2)C1` [Compound 18, (2-Benzyl-1-cyclohexylmethyl-1H-indol-5-yl)-[3-(4-pyridin-2-yl-piperazin-1-yl)-azetidin-1-yl]-methanone] the “Example 4 % MAFP @ 10 μM” value was 134.6 % MAFP. `CC(C)(C)c1nc2ccc(C(=O)N3CC(N4CCN(c5ccccn5)CC4)C3)cc2o1` [Compound 19, (2-tert-Butyl-benzooxazol-6-yl)-[3-(4-pyridin-2-yl-piperazin-1-yl)-azetidin-1-yl]-methanone] was tested, and the “Example 4 % MAFP @ 10 μM” value was 47.3 % MAFP. In the case of `COc1cccc(-c2nc3cc(C(=O)N4CC(N5CCN(c6ccccn6)CC5)C4)ccc3o2)c1` [Compound 20, [2-(3-Methoxy-phenyl)-benzooxazol-5-yl]-[3-(4-pyridin-2-yl-piperazin-1-yl)-azetidin-1-yl]-methanone], the “Example 4 % MAFP @ 10 μM” value is reported as 86.9 % MAFP. `COc1ccccc1N1CCN(C2CN(C(=O)c3ccc4c(c3)cc(Cc3ccccc3)n4CC(C)C)C2)CC1` [Compound 21, (2-Benzyl-1-isobutyl-1H-indol-5-yl)-{3-[4-(2-methoxy-phenyl)-piperazin-1-yl]-azetidin-1-yl}-methanone] was tested, and the “Example 4 % MAFP @ 10 μM” value was 29.2 % MAFP. `COc1ccccc1N1CCN(C2CN(C(=O)c3ccc4c(c3)cc(COc3ccccc3)n4CC(C)(C)C)C2)CC1` [Compound 22, [1-(2,2-Dimethyl-propyl)-2-phenoxymethyl-1H-indol-5-yl]-{3-[4-(2-methoxy-phenyl)-piperazin-1-yl]-azetidin-1-yl}-methanone] was tested, and the “Example 4 % MAFP @ 10 μM” value was 50.1 % MAFP. With `COc1ccccc1N1CCN(C2CN(C(=O)c3ccc4c(c3)cc(Cc3ccccc3)n4CC3CCCCC3)C2)CC1` [Compound 23, (2-Benzyl-1-cyclohexylmethyl-1H-indol-5-yl)-{3-[4-(2-methoxy-phenyl)-piperazin-1-yl]-azetidin-1-yl}-methanone] the “Example 4 % MAFP @ 10 μM” value was 84.5 % MAFP. In the case of `COc1ccccc1N1CCN(C2CN(C(=O)c3ccc4c(c3)cc(-c3ccccc3)n4CC(C)(C)C)C2)CC1` [Compound 24, [1-(2,2-Dimethyl-propyl)-2-phenyl-1H-indol-5-yl]-{3-[4-(2-methoxy-phenyl)-piperazin-1-yl]-azetidin-1-yl}-methanone], the “Example 4 % MAFP @ 10 μM” value is reported as 58.8 % MAFP. For `CC(C)(C)Cn1c(-c2ccccc2)cc2cc(C(=O)N3CC(N4CCN(c5ccc(F)cc5)CC4)C3)ccc21` [Compound 25, [1-(2,2-Dimethyl-propyl)-2-phenyl-1H-indol-5-yl]-{3-[4-(4-fluoro-phenyl)-piperazin-1-yl]-azetidin-1-yl}-methanone], the “Example 4 % MAFP @ 10 μM” value was 65.8 % MAFP. With `CC(C)(C)Cn1c(C(C)(C)C)cc2cc(C(=O)N3CC(N4CCN(c5ccccn5)CC4)C3)ccc21` [Compound 26, [2-tert-Butyl-1-(2,2-dimethyl-propyl)-1H-indol-5-yl]-[3-(4-pyridin-2-yl-piperazin-1-yl)-azetidin-1-yl]-methanone] the “Example 4 % MAFP @ 10 μM” value was 37.0 % MAFP. `COCC(=O)c1c(-c2ccc(C)cc2)[nH]c2ccc(C(=O)N3CC(N4CCN(c5ccccn5)CC4)C3)cc12` [Compound 27, 2-Methoxy-1-{5-[3-(4-pyridin-2-yl-piperazin-1-yl)-azetidine-1-carbonyl]-2-p-tolyl-1H-indol-3-yl}-ethanone] was tested, and the “Example 4 % MAFP @ 10 μM” value was 76.3 % MAFP. `CCCc1cc2cc(C(=O)N3CC(N4CCN(c5ccccn5)CC4)C3)ccc2n1CC1CCCCC1` [Compound 28, (1-Cyclohexylmethyl-2-propyl-1H-indol-5-yl)-[3-(4-pyridin-2-yl-piperazin-1-yl)-azetidin-1-yl]-methanone] was tested, and the “Example 4 % MAFP @ 10 μM” value was 77.0 % MAFP.
